{
  "source": "patent US8470534B2",
  "about": "“Methods of predicting resistance or sensitivity to therapies for cancer” (priority 2006, dated 2013)",
  "key": {"[1]": {"system": "MCF7 donor or siRb xenograft tumors", "assay": "Nude mouse xenograft therapeutic study", "type": "in vivo, nude mice", "experimental": "The xenograft model system is then utilized to test the response of RB-deficient tumors to CDDP therapy. Tumors are developed in the flanks of mice by injecting MCF7 donor or siRb cells into the flanks of mice and implanting a […] (E2) pellet into the back. When tumors reached 100-110 mm^3, mice received 5 mg/kg CDDP every 4 days for 5 courses.\nTo assess the role of RB in the therapeutic response of MCF7 cells in vivo, the xenograft model is again employed. Upon the attainment of tumors of approximately 100-120 mm^3, mice are deprived of estrogen and treated with Tam. […] (FIG. 4F). […] All tumors are weighed upon exclusion, and RB-deficient tumors are more than 3 times heavier than control tumors following Tam therapy (FIG. 4G).\nFive- to 8-week-old female ovariectomized athymic nude mice are anesthetized, and an E2 pellet (1.7 mg/pellet, 90-day release) or placebo is surgically implanted in the back. Following implantation, 200 μl of a PBS- and phenol red-free Matrigel matrix basement membrane, solution (3:1) containing 2×10^6 cells is injected subcutaneously into the flank, or contralaterally where noted. Tumor volume is measured with calipers every 4 days using the equation V=0.52 (width)^2 ×(length). In the therapeutic studies, when tumor volume reaches 100-120 mm^3, animals are placed into 1 of 3 therapeutic groups (each group containing at least 6 animals): control animals retaining the estrogen pellet, antiestrogen-treated animals, or CDDP-treated animals. Animals in the antiestrogen treatment group are anesthetized, the estrogen pellet is surgically removed, and a Tam pellet (5 mg/pellet, 60-day release) implanted. The CDDP-treated animals receive 5 mg/kg CDDP injected i.p. on a q4dx5 schedule (every 4 days for 5 courses). All animals are injected i.p. with 150 mg/kg BrdU (Sigma-Aldrich) 1 hour prior to euthanization. Xenograft tumors are weighed and fixed in 10% neutral buffered formalin, paraffin embedded, and cut into 5-ÿm sections. For immunohistochemical staining, sections are deparaffinized in xylene and rehydrated through a graded series of ethanol/water solutions. A BrdU detection kit is utilized as recommended by the manufacturer. BrdU incorporation is scored in a blinded manner, and at least 500 cells per section are counted from several random fields."}, "[2]": {"system": "MCF7, T47D, and Zr-75-1 cells", "assay": "BrdU incorporation (cell-cycle checkpoint) after CDDP treatment", "type": "cell-based, human", "experimental": "The RB and p53 tumor suppressors are known to be critical for induction of DNA damage checkpoints, and therapies inducing DNA damage are used as an additional line of treatment for ER-positive breast cancers resistant to hormonal therapy. Therefore, the role of these tumor suppressors in the response to therapeutic doses of DNA-damaging agents is investigated. Wild-type MCF7, T47D, and Zr-75-1 cells are treated with 0, 8, or 16 μM CDDP and labeled with BRDU to determine the effect of the agent on cell-cycle progression. […] To specifically probe the impact of RB in the response to DNA damage, T47D and Zr-75-1 polyclonal donor and siRb88 cells are utilized. […] To confirm these findings, MCF7 donor 1 and siRb28 cells are treated with either CDDP as described above or with 0, 2.5, or 5 Gy ionizing radiation (IR). […] To determine the long-term effect of DNA damage therapy upon proliferation, cell growth assays are performed wherein the RB-proficient and deficient MCF7 clones are plated at equal density and treated with 2.5 or […].\n(§1) RB target gene upregulation is a prognostic indicator in human breast cancers. RB performs a myriad of functions, the most well understood being repression of the E2F family of transcription factors. To determine the specific influence of the E2F axis on bypassing therapy, an activator E2F is overexpressed in wild-type MCF7 cells. Specifically, cells are infected either with an adenovirus encoding E2F3 (ad-E2F3) or a control virus (Ad-LacZ) and are harvested 3 days after infection for immunoblot analysis of levels of known RB-E2F targets (FIG. 5A). […] As expected, no changes are detected in RB levels, and CDK4 serves as a loading control. In order to assess the response to therapeutic intervention, 3 days after infection Ad-E2F3- or AdLacZ-infected MCF7 cells are separated into 2 major treatment groups: hormone therapy and DNA damage therapy. The estrogen ablation group is then cultured in the absence of estrogen and in the presence of Tam and ICI as described above. Alternatively, the cells in the DNA damage therapy group are treated with 16 μM CDDP for 18 hours prior to washing or treatment with 5 Gy IR. Cells from both therapy groups are BrdU labeled, and the replicative fraction of treated cells is determined with respect to untreated control cells (FIG. 5B).\nThe MCF7, T47D, and Zr-75-1 cell lines are obtained from ATCC and propagated in DMEM containing 10% FS supplemented with 100 U/ml penicillin/streptomycin and 2 mM L-glutamine at 37° C. in air containing 5% CO2. […] Cells are infected with Ad-lacZ at a multiplicity of infection of 50, at which 95% of cells are infected (as determined by plaque assay in 293 cells) or with 2.7×10^11 virus particles/ml of Ad-E2F3 and cultured for 3 days prior to use. […]"}, "[3]": {"system": "MCF7, T47D, and Zr-75-1 cells", "assay": "BrdU incorporation under hormone deprivation / antiestrogen (CDT, CDT/Tam, CDT/ICI)", "type": "cell-based, human", "experimental": "To understand the impact of RB deficiency on the response to hormone deprivation therapy, cells are cultured in CDT, CDT/Tam, or in the presence of pure antiestrogen, ICI182780 (CDT/ICI). Following treatment with these modalities, cells are labeled with BrdU to determine the influence of each agent on cell-cycle progression and the corresponding influence of RB knockdown on this response (FIG. 4B). These experiments are recapitulated in the polyclonal populations of T47D and Zr-75-1 donor and siRb88 cells (FIG. 4C). […] To elucidate the long-term growth effects of these therapies, cell proliferation assays are performed over 9 days. RB-proficient and -deficient MCF7 cells are seeded at equal densities and cultured in CDT/Tam (FIG. 4D). […] Similar results are evident in the same experiments with both T47D and Zr-75-1 RB-proficient and -deficient polyclonal pools (FIG. 4E).\nas §1\nTo study the effect of estrogen depletion, cells are cultured for 72 hours in phenol red-free DMEM supplemented with 10% CDT serum with addition of 10^−9 M 4-HydroxyTam or 10^−6 M ICI where indicated. Cell growth assays are performed by trypsinizing cells and counting by trypan blue exclusion every 3 days.\nCells treated with IR are exposed to ^137Cs (dose rate: 0.67 Gy/min) at room temperature in tissue culture media. Culture with clinical grade CDDP for 18 hours is performed for all CDDP treatments. For all proliferation studies, cells are labeled with BrdU for 10 hours or 5 hours for LXSN/LXSN-p53dd infected cells, and BrdU immunofluorescence is performed as previously described. All BrdU results are expressed as a percentage of untreated control cells set to 100%, unless otherwise noted."}},
  "data": [
    {"smiles": "N.N.[Cl][Pt][Cl]", "note": "[CDDP, cis-diamminedichloroplatinum II]", "values": [
      {"measurement": "tumor response during treatment, RB-deficient tumors", "setting": "[1]; RB-deficient MCF7 tumors versus control tumors, 5 mg/kg CDDP every 4 days for 5 courses", "result": "regressed more rapidly"},
      {"measurement": "tumor response during treatment", "setting": "[1]; RB-proficient and RB-deficient MCF7 tumors, 5 mg/kg CDDP i.p. every 4 days for 5 courses", "result": "both tumor types regressed"},
      {"measurement": "tumor weight upon excision, tumors lacking RB relative to control tumors", "setting": "[1]; following CDDP therapy", "result": "less than half as much as control tumors"},
      {"measurement": "cell-cycle arrest (replicative fraction, BrdU)", "setting": "[2]; Ad-E2F3-infected versus control infected MCF7 cells, 16 μM CDDP for 18 hours", "result": "significantly reduced levels of cell-cycle arrest"},
      {"measurement": "DNA damage checkpoint (BrdU labeling)", "setting": "[2]; MCF7 siRb28 versus donor 1 cells, CDDP 0, 8, or 16 μM", "result": "RB deficiency promotes bypass of the DNA damage checkpoints"},
      {"measurement": "BrdU incorporation following DNA damage", "setting": "[2]; RB-deficient (siRb88) T47D and Zr-75-1 cells, 0, 8, or 16 μM CDDP", "result": "continue to incorporate BrdU efficiently"},
      {"measurement": "effect on cell-cycle progression (BrdU labeling)", "setting": "[2]; wild-type RB-positive MCF7, T47D, Zr-75-1 cells, 0, 8, or 16 μM CDDP for 18 hours, BrdU 10 hours", "result": "dose-dependent cell-cycle checkpoint"}
    ]},
    {"smiles": "C[C@]12CC[C@@H]3c4ccc(O)cc4C[C@@H](CCCCCCCCC[S+]([O-])CCCC(F)(F)C(F)(F)F)[C@H]3[C@@H]1CC[C@@H]2O", "note": "(stereo partly shown) [ICI182780]", "values": [
      {"measurement": "cell-cycle arrest (replicative fraction, BrdU)", "setting": "[3]; Ad-E2F3-infected versus control infected MCF7 cells, absence of estrogen plus agent", "result": "significantly reduced levels of cell-cycle arrest"},
      {"measurement": "cell-cycle inhibition by the agent (BrdU labeling)", "setting": "[3]; RB-depleted cells (MCF7 siRb28, T47D and Zr-75-1 siRb88), CDT serum plus agent, 3 days", "result": "significantly reduced"},
      {"measurement": "cell-cycle progression (BrdU labeling)", "setting": "[3]; cells harboring functional RB (MCF7, T47D, Zr-75-1 donor), CDT serum plus agent, 3 days, 10^−9 M 4-HydroxyTam or 10^−6 M ICI", "result": "elicit cell-cycle inhibition"}
    ]}
  ]
}
